From publication PMC2840032, “Discovery of Fragment Molecules That Bind the Human Peroxiredoxin 5 Active Site” (PLoS ONE, 2010)

Key:
human PRDX5 [1] = target: T1, human PRDX5 (Homo sapiens, UniProt P30044); assay: NMR screening: STD factor (f STD) of fragments with PRDX5; type: binding; conditions: for STD factor (f STD): Figure 2, relative degree of saturation normalized to that of F090; for f STD: F152 compared with D3
T1 construct: 6xHis (N); made in house; host or cells: E. coli strain M15 (pRep4)
T1 sequence (P30044 53-214): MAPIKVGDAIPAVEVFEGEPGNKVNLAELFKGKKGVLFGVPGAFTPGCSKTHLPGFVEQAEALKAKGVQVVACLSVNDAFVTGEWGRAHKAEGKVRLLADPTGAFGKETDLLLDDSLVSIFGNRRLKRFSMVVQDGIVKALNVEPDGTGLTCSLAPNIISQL
Description: All spectra were acquired at 20°C with a Varian Inova 600 MHz NMR spectrometer, equipped with a standard 5 mm triple-resonance inverse probe with a z-axis field gradient, actively shielded, and with an autosampler robot. The NMR samples were prepared with a robot TECAN Miniprep 60. For 175 fragments, 32 NMR tubes were prepared with 20 µM of the reduced protein and 600 µM fragments. For 25 fragments (6 NMR samples) that were not soluble at 600 µM in water, the final concentration in the NMR tube was set to 200 µM. All samples contained 1 mM DTT. […] Control 1D ^1H spectra preceded all experiments to assess the purity and stability of the fragments. NMR screening was achieved using 1D STD [30] and Waterlogsy experiments. The parameters used were the same as previously described. All NMR spectra were processed with the Varian VnmrJ software.
(§1) KD values were determined by fitting the plot of [L]tot vs. f STD as previously published.

[2] = Solubility in water / in the assay; type: physicochemical; conditions: for solubility in water: for KD measurement by STD titration; for solubility in the assay: thioredoxin peroxidase inhibition assay
Excerpt: We previously designed a small generalist library of 60 fragments and used it to elaborate an inhibitor of the Creatine kinase protein [27], based on the identification of an initial fragment by NMR screening. Here, the library was enlarged and contains 200 fragments that correspond to small commercial compounds with physicochemical properties defined by the rule of three. The 140 newly added fragments were chosen so as to enhance the diversity of the library in terms of size, shape and chemical functionalities. […] Waterlogsy experiments were recorded to detect possible aggregation as LOGSY effects are characteristic of high molecular weight compounds in water. When the molecules were not soluble at 600 µM, solutions were tested at 200 µM. If not soluble, the molecules were rejected from the selection. Then, to optimize the experimental time and to reduce the protein quantity required for the NMR screening experiments, fragments were pulled into mixtures of 3 to 6 molecules with minimum spectral overlap. NMR spectra of the mixtures were recorded after 3 months to confirm the absence of degradation of the compounds.
The compounds of the library were chosen from Aldrich or Acros online catalogs with SHAPES-like criteria [40]–[42] and had to fit the rule of three. Aqueous solubility was checked for all compounds by recording ^1H 1D NMR spectrum and Waterlogsy spectrum, [43]. 110 mM stock solutions of the library compounds were prepared in DMSO-d 6 and conserved at −20°C. ^1H 1D NMR spectrum were recorded to check that no degradation occurs over 3 months. Compounds were mixed by 3 to 6 to decrease the NMR experimental time as well as the protein quantity. Criteria for the compound selection for the mixtures were the absence of overlapping resonances in the 1D NMR spectra. The library contained 200 validated fragments.

human PRDX5 [3] = target: T1, human PRDX5; assay: Thioredoxin peroxidase activity inhibition assay; type: biochemical; conditions: 0–600 µM
Description: Inhibition of thioredoxin peroxidase activity was assayed using thioredoxin peroxidase assay in a 96-well plate reader essentially as described by Kim et al. [48] and Theys et al. [49]. Briefly, the spectrometric assay was performed in a 160 µl reaction mixture containing 500 µM NADPH, 4 µM recombinant S.cerevisiae thioredoxin, 2 µM recombinant S.cervisiae thioredoxin reductase, 0.6 µM human recombinant PRDX5 and increasing concentrations (0 to 6 mM) of fragments (from stock solutions in DMSO) in PBS 0.1M (pH 7.4). The reaction was initiated by adding H2O2 at the final concentration of 100 µM. NADPH oxidation was monitored by following absorbance at 340 nm for 30 min at 37°C. The initial rate of reaction was calculated using the linear portion of the curve and was expressed as the amount of NADPH oxidized per min. The IC50 was calculated with the percentage of remaining thioredoxin peroxidase activity. Measurements were performed in quadruplicates.

human PRDX5 [4] = target: T1, human PRDX5; assay: KD measurements by STD factor variation upon titration; type: binding
Description: as §1

STD factor (f STD) (human PRDX5 [1])	solubility in water [2]	SMILES	also measured
69	too low	O=C(c1ccccc1)c1ccc(O)cc1O [F082]	
76	too low	Oc1ccc(-c2ccc(O)cc2)cc1 [F093]	solubility in the assay [2]: insufficient solubility
		Cc1ccc(O)c(O)c1 [D3, 4-methyl-catechol]	f STD (human PRDX5 [1]): 66%
42	too low	Oc1cccc2[nH]c3ccccc3c12 [F069]	
32		Oc1ccccc1O [F152, catechol]	f STD (human PRDX5 [1]): 32%
100		Oc1ccccc1Cc1ccccc1O [F090, bis-(2-hydroxyphenyl)-methan]	Kd (human PRDX5 [4]; STD titration, reduced PRDX5, read-out: dissociation constant KD): 1200 ± 400 µM; ligand efficiency (human PRDX5 [4]; free energy of binding divided by the number of heavy atoms): 0.42 kcal/mol; solubility in the assay [2]: insufficient solubility

SMILES	STD factor (f STD) (human PRDX5 [1])	solubility in water [2]	also measured
Oc1ccccc1-c1ccccc1 [F012]	88	too low	inhibitory activity on thioredoxin peroxidase activity (human PRDX5 [3]): no inhibitory activity
